Data from patent publication US20150017093A1, “RADIOLABELED BILE ACIDS AND BILE ACID DERIVATIVES” (Aarhus Universitet, priority 2012, published 2015).
“Also recorded” adds a separate entry of the source.

Assays:
[1] = system: transhepatic transport of ^11C—CSar; conditions: Pig 1
Protocol: Pigs 1 and 2 underwent 90-min dynamic PET/CT recordings (list-mode) using intravenous administration of 400 MBq ^11C—CSar. […] In Pig 2, a second ^11C—CSar administration was given to determine the biodistribution of the tracer by means of whole-body PET/CT recordings. In both pigs, at least 6 half-lives of the ^11C-isotope (half-live: 20.4 min) were allowed to pass between tracer administrations.
The decay-corrected dynamic PET data were reconstructed using the iterative TrueX algorithm (3 iterations, 21 subsets) and post-filtered using a 3 mm Gaussian filter yielding 3D-images of 168×168×109 voxels. Time-activity curves (TACs) were generated from volumes of interest (VOIs) drawn in liver tissue, intrahepatic bile ducts, and choledochus using fused PET/CT images.

[2] = Stability of the tracer in its final formulation; format: physicochemical; conditions: up to 2.5 h after the end of the synthesis
Protocol: The three-step radiosynthesis provided 0.56-1.09 GBq of ^11C—CSar (5) with a radiochemical yield of 13±3% (mean±SD; n=7, decay-corrected) and with radiochemical purity >99% within 40 min. The radiochemical yield of the intermediate ^11C-cholylsarcosine methyl ester 4 was approximately 20% and the deprotection proceeded with full conversion to give ^11C—CSar exclusively.

[3] = Dynamic PET/CT with arterial blood sampling after intravenous ^11C—CSar in pigs; format: in vivo, pig
Protocol: Three pigs (3-month old female Danish Landrace and Yorkshire cross-breed; body weight 35-40 kg) were fasted for 18 h with free access to water. Each animal was premedicated with midazolam and s-ketamine, anaesthetized with a mixture of midazolam, s-ketamine and propofol, and mechanically ventilated as previously described (Sørensen M. Munk O L, Mortensen F V, et al. Hepatic uptake and metabolism of galactose can be quantified in vivo by 2-[^18F]fluoro-2-deoxy-galactose positron emission tomography. Am J Physiol Gastrointest Liver Physiol. 2008; 295:G27-G36). The animal was placed on a thermostatically-controlled heating blanket, keeping the rectal temperature 38.5-39.5° C. By adjusting the mechanical respiration, arterial blood pCO2, pO2, and pH were kept between 5.3-7.2 kPa, 12-25 kPa, and 7.35-7.45, respectively. Blood glucose was 5.0-6.7 mM. Catheters (Cordis) were inserted into the femoral vein and artery for intravenous administrations and blood sampling, respectively. After completion of the experiment, the animal was euthanized with an overdose of pentobarbital (100 mg/kg).
For PET/CT studies, the pig was placed on the back in a Siemens Biograph 64 Truepoint PET/CT camera with a 21 cm transaxial PET field-of-view. A CT scan (250 effective mAs with CAREDose4D, 120 kV, pitch 1.0, slice thickness 2.0 mm) was performed for definition of anatomical structures and attenuation correction of the PET recordings.
During the dynamic PET recordings of Pig 1 and 2, blood samples (0.5 mL) were collected from the femoral artery at 12×5, 6×10, 6×30, 5×60, 8×600 seconds. The radioactivity concentrations in the samples were measured in a well counter (Packard Biosciences) that was cross-calibrated to the PET camera. Additional blood samples were collected 2, 5, 10, 20, 40, 60, and 90 min after tracer administration for determination of ^11C-metabolites in plasma.

[4] = Plasma free fraction by ultrafiltration; format: in vitro ADME; conditions: female, Danish Landrace and Yorkshire cross-breed, pig
Protocol: The plasma free fraction of ^11C—CSar was determined in plasma samples collected prior to tracer administration in all three pigs; moreover, plasma was collected 10 seconds after end of cholyltaurine infusion in Pig 1, i.e. before the ^11C—CSar administration. The plasma samples were mixed with aliquots of ^11C—CSar, pipetted into ultrafiltration units (Pall Nanosep Centrifugal Device, Cut-off 30,000 D, Sigma-Aldrich) and centrifuged at room temperature (10 min at 12,000 rpm). Radioactivity in plasma and ultrafiltrates were counted in the well counter. Filter retention of the tracer was determined using sodium phosphate buffer solution (35 mM; pH 7.2). The free fraction was calculated as the ratio of radioactivity concentration in the ultrafiltrate corrected for filter retention to the total radioactivity concentration in plasma.

[5] = Whole-body PET/CT biodistribution and dosimetry (OLINDA/EXM), Pig 2; format: in vivo; conditions: for Absorbed dose estimate / Effective dose: Pig 2 (40 kg) extrapolated to 74-kg human; for Effective dose: ICRP 60
Protocol: For the biodistribution study, ^11C—CSar was administrated intravenously in Pig 2 followed by five whole-body PET scans with one minute between scans and with progressive increase of scan durations per bed-position, i.e. 1, 2, 3, 4 and 5 min, respectively. […] Other source organs (gallbladder, stomach, small intestines, and kidneys) had non-uniform radioactivity distribution and for these organs, the total activity was estimated using a large VOI encompassing all accumulated radioactivity. For each source organ, the time course of the non-decay-corrected total radioactivity was generated. Data were extrapolated from pig (40 kg) to human (74 kg) and recalculated into time courses of fractions of injected dose (% ID). Residence times were computed as the trapezoidal sum of the time course of % ID assuming that the radioactivity decayed only by physical decay after the last scan. Residence time for the rest of the body was calculated as the total body residence time (without voiding) minus the sum of the residence times from the source organs. The residence times were entered into OLINDA/EXM 1.0 (Stabin M G, Sparks R B, Crowe E. OLINDA/EXM: The second-generation personal computer software for internal dose assessment in nuclear medicine. J Nucl Med. 2005; 46:1023-1027) to compute absorbed doses using the male reference phantom and to obtain effective dose values according to ICRP 60.

[6] = Dynamic ^11C—CSar PET/CT in patients with cholestasis; format: in vivo, human; conditions: patient with BRIC-1 cholestasis; intravenous infusion
Excerpt: Two dynamic PET/CT studies in humans have been performed; one in a patient with inherited cholestasis and the other in a patient with drug-induced cholestasis. FIG. 4 illustrates the findings in the patient with inherited cholestasis; a person diagnosed with BRIC-1 (benign recurrent intrahepatic cholestasis), who was examined during a cholestatic episode with severe pruritus, hyperbilirubinemia and high plasma bile acid concentrations. […] Images from the second patient show similar changes.

[7] = cited from earlier work
[8] = cholyltaurine pretreatment vs. without

Question: With cholyltaurine [reference compound] as the compound, how does the “effect on hepatic uptake and biliary excretion of ^11C—CSar” value ([1]; 286 mg/kg intravenous 50-second infusion before tracer) read?
Answer: markedly inhibited

Question: For `C[C@H](CCC(=O)N([11CH3])CC(=O)O)[C@H]1CC[C@H]2[C@@H]3[C@H](O)C[C@@H]4C[C@H](O)CC[C@]4(C)[C@H]3C[C@H](O)[C@]12C` [^11C—CSar, N-(3α,7α,12α-Trihydroxy-24-oxocholan-24-yl)-N—[^11C]methyl-glycine], which “alterations in chemical or radiochemical purity” value [2] is on record?
Answer: no alterations

Question: What about the “time to peak of liver TAC” value ([3]; Pig 1 and 2, after intravenous tracer) of the same compound?
Answer: ≤ 3 min

Question: What about the “uptake into liver tissue” value ([3]; Pig 1 and 2, intravenous, dynamic PET/CT) of the same compound?
Answer: rapid uptake

Question: And the “time of appearance of radioactivity in the intrahepatic bile ducts” value ([3]; after ^11C—CSar administration)?
Answer: approximately one

Question: What about the “time at which radioactivity in liver tissue and bile ducts increased again (enterohepatic circulation)” value ([3]; after administration of the tracer) of the same compound?
Answer: about 75 min

Question: What about the “time to peak radioactivity concentration in the choledochus” value ([3]; after tracer administration) of the same compound?
Answer: 4 to 6 min

Question: And the “time for liver TAC to decrease to very low concentrations” value ([3]; pig, in vivo)?
Answer: 30 to 40 min

Question: What about the “time of appearance of radioactivity in the choledochus” value ([3]; relative to appearance in intrahepatic bile ducts) of the same compound?
Answer: one minute later

Question: What about the “peak radioactivity concentration of liver TAC” value ([3]; relative to arterial TAC) of the same compound?
Answer: comparable to the peak concentration of the arterial TAC

Question: What about the fraction unbound ([4]; plasma collected after administration of cholyltaurine (Pig 1)) of the same compound?
Answer: 1

Question: And the fraction unbound ([4]; plasma collected before tracer administration, n=3)?
Answer: 0.18 ± 0.02

Question: And the Absorbed dose estimate ([5]; Adrenals)?
Answer: 2.88 μGy/MBq

Question: And the Absorbed dose estimate ([5]; Bone surface)?
Answer: 2.87 μGy/MBq

Question: And the Absorbed dose estimate ([5]; Brain)?
Answer: 1.57 μGy/MBq

Question: What about the Absorbed dose estimate ([5]; Breasts) of the same compound?
Answer: 1.66 μGy/MBq

Question: And the Absorbed dose estimate ([5]; Gallbladder wall)?
Answer: 59.40 μGy/MBq

Question: And the Absorbed dose estimate ([5]; Heart wall)?
Answer: 2.33 μGy/MBq

Question: What about the Effective dose [5] of the same compound?
Answer: 4.4 μSv/MBq

Question: And the Effective dose ([5]; listed as 11C-CSar)?
Answer: 4.40 μSv/MBq

Question: And the Absorbed dose estimate ([5]; Kidneys)?
Answer: 2.34 μGy/MBq

Question: And the Absorbed dose estimate ([5]; Liver)?
Answer: 10.80 μGy/MBq

Question: And the Absorbed dose estimate ([5]; Lower large intestine wall)?
Answer: 3.91 μGy/MBq

Question: And the Absorbed dose estimate ([5]; Lungs)?
Answer: 2.06 μGy/MBq

Question: What about the Absorbed dose estimate ([5]; Muscle) of the same compound?
Answer: 2.23 μGy/MBq

Question: And the Absorbed dose estimate ([5]; Ovaries)?
Answer: 4.97 μGy/MBq

Question: What about the Absorbed dose estimate ([5]; Pancreas) of the same compound?
Answer: 3.36 μGy/MBq

Question: What about the “organs with high accumulation of tracer relative to surrounding tissue” value ([5]; Pig 2, whole-body PET scans) of the same compound?
Answer: liver, gallbladder, stomach, and small intestines

Question: What about the “radioactivity in other organs, including the urinary bladder” value ([5]; Pig 2, whole-body PET scans) of the same compound?
Answer: Virtually no radioactivity was detected

Question: And the Absorbed dose estimate ([5]; Red marrow)?
Answer: 2.34 μGy/MBq

Question: What about the Absorbed dose estimate ([5]; Skin) of the same compound?
Answer: 1.61 μGy/MBq

Question: And the Absorbed dose estimate ([5]; Small intestine)?
Answer: 39.30 μGy/MBq

Question: What about the Absorbed dose estimate ([5]; Spleen) of the same compound?
Answer: 2.37 μGy/MBq

Question: What about the Absorbed dose estimate ([5]; Stomach wall) of the same compound?
Answer: 3.92 μGy/MBq

Question: What about the Absorbed dose estimate ([5]; Testes) of the same compound?
Answer: 1.82 μGy/MBq

Question: And the Absorbed dose estimate ([5]; Thymus)?
Answer: 1.88 μGy/MBq

Question: And the Absorbed dose estimate ([5]; Thyroid)?
Answer: 1.78 μGy/MBq

Question: What about the Absorbed dose estimate ([5]; Total body) of the same compound?
Answer: 2.83 μGy/MBq

Question: What about the Absorbed dose estimate ([5]; Upper large intestine wall) of the same compound?
Answer: 7.07 μGy/MBq

Question: What about the Absorbed dose estimate ([5]; Urinary bladder wall) of the same compound?
Answer: 2.67 μGy/MBq

Question: And the Absorbed dose estimate ([5]; Uterus)?
Answer: 4.62 μGy/MBq

Question: And the “distribution of tracer on PET/CT 5 min after start of infusion” value [6]?
Answer: still observed in the liver; also recorded: still ^11C—CSar in the liver

Question: What about the “distribution of tracer on PET/CT 25 min after start of infusion” value [6] of the same compound?
Answer: accumulated in the liver and intrahepatic bile ducts

Question: And the “decrease of liver tissue TAC with time” value [1, 8]?
Answer: significantly slower

Question: And the “rate of increase of TAC in the choledochus” value [1, 8]?
Answer: much slower rate

Question: What about the “maximum value of choledochus TAC relative to that without pretreatment” value ([1]; pretreatment with cholyltaurine) of the same compound?
Answer: 2%

Question: What about the “maximum radioactivity concentration of liver tissue TAC compared to studies without cholyltaurine” value ([1]; pretreatment with cholyltaurine 286 mg/kg i.v.) of the same compound?
Answer: approximately 40%

Question: What does the source list for `C[C@H](CCC(=O)N(C)CC(=O)O)[C@H]1CC[C@H]2[C@@H]3[C@H](O)C[C@@H]4C[C@H](O)CC[C@]4(C)[C@H]3C[C@H](O)[C@]12C` [CSar, N-methyl-cholylglycine]?
Answer: toxicity to humans [7]: non-toxic; biotransformation during enterohepatic circulation ([7]; humans): without hepatic or intestinal biotransformation
